This is an account of results in US7432259B2, “Spiro-piperidine derivatives” (Hoffmann-La Roche Inc., priority 2006, dated 2008).

In the experiment the target is T1, human V1a receptor (Homo sapiens, UniProt P37288).
T1 construct: expressed in transfected cells; host or cells: HEK293 cells, transiently transfected; cell membranes used
Briefly: human V1a receptor binding study (3H-Vasopressin SPA, membranes of transfected HEK293 cells). Particulars: membranes of HEK293 cells transiently transfected with human V1a receptor, Ki by Cheng-Prussoff equation, read-out: pKi(hV1a) (converted). How it is done:
The human V1a receptor was cloned by RT-PCR from total human liver RNA. The coding sequence was subcloned in an expression vector after sequencing to confirm the identity of the amplified sequence. […] Cell membranes were prepared from HEK293 cells transiently transfected with the expression vector and grown in 20 liter fermenters with the following protocol.
50 g of cells were resuspended in 30 ml freshly prepared ice cold Lysis buffer (50 mM HEPES, 1 mM EDTA, 10 mM MgCl2 adjusted to pH=7.4+complete cocktail of protease inhibitor (Roche Diagnostics)). Homogenized with Polytron for 1 min and sonicated on ice for 2×2 minutes at 80%, intensity (Vibracell sonicator). The preparation was centrifuged 20 min at 500 g at 4° C., the pellet was discarded and the supernatant centrifuged 1 hour at 43,000 g at 4° C. (19,000 rpm). The pellet was resuspended in 12.5 ml Lysis buffer+12.5 ml Sucrose 20% and homogenized using a Polytron for 1-2 min. The protein concentration was determined by the Bradford method and aliquots were stored at −80° C. until use. For binding studies 60 mg Yttrium silicate SPA beads (Amersham) were mixed with an aliquot of membrane in binding buffer (50 mM Tris, 120 mM NaCl, 5 mM KCl, 2 mM CaCl2, 10 mM MgCl2) for 15 minutes with mixing. 50 ul of bead/membrane mixture was then added to each well of a 96 well plate, followed by 50 ul of 4 nM 3H-Vasopressin (American Radiolabeled Chemicals). For total binding measurement 100 ul of binding buffer were added to the respective wells, for non-specific binding 100 ul of 8.4 mM cold vasopressin and for compound testing 100 ul of a serial dilution of each compound in 2% DMSO. The plate was incubated 1 h at room temperature, centrifuged 1 min at 1000 g and counted on a Packard Top-Count. Non-specific binding counts were subtracted from each well and data was normalized to the maximum specific binding set at 100%. To calculate an IC 50 the curve was fitted using a non-linear regression model (XLfit) and the Ki was calculated using the Cheng-Prussoff equation.

T1 sequence (P37288 whole entry): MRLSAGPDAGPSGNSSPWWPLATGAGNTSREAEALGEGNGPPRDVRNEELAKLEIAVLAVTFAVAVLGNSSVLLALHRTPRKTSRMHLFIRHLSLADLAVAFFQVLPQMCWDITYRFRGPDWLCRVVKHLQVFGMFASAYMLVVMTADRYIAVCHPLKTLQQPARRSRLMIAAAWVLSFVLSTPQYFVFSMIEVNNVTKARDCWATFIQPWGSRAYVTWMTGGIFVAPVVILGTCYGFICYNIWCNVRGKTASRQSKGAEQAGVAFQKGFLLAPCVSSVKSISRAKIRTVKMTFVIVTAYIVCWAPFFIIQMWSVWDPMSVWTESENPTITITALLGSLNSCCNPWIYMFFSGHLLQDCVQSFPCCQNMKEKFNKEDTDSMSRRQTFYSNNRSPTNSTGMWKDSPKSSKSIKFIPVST

Turning to `N#CCn1c(C(=O)N2CCC3(CC2)CC(=O)Nc2ccc(Br)cc23)cc2cc(Cl)ccc21` [Example 7, {2-[(6′-Bromo-2′-oxo-2′,3′-dihydro-1H,1′H-spiro[piperidine-4,4′-quinolin]-1-yl)carbonyl]-5-chloro-1H-indol-1-yl}acetonitrile], the Ki is 47.3 nM. Consider `Cn1c(C(=O)N2CCC3(CC2)OC(=O)Nc2ccccc23)cc2cc(Cl)ccc21` [Example 14, 1′-[(5-Chloro-1-methyl-1H-indol-2-yl)carbonyl]spiro[3,1-benzoxazine-4,4′-piperidin]-2(1H)-one], for which the Ki is 29.9 nM.

For the compound `N#CCn1c(C(=O)N2CCC3(CC2)OC(=O)Nc2ccccc23)cc2ccccc21` [Example 15, {2-[(2-Oxo-1,2-dihydro-1′H-spiro[3,1-benzoxazine-4,4′-piperidin]-1′-yl)carbonyl]-1H-indol-1-yl}acetonitrile], the Ki is 60.3 nM. With `N#CCn1c(C(=O)N2CCC3(CC2)OC(=O)Nc2ccccc23)cc2cc(Cl)ccc21` [Example 16, {5-Chloro-2-[(2-oxo-1,2-dihydro-1′H-spiro[3,1-benzoxazine-4,4′-piperidin]-1′-yl)carbonyl]-1H-indol-1-yl}acetonitrile], the Ki was 10.6 nM.
